# Source: the supplement of paper PMC10307832
# Columns and labels:
# Experiment in all cases: relative viability (nuclei count vs DMSO), 5 days (fraction); higher = more cells survive
# [1] = tested on: LCLC-103H
# Method in brief: (§1)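 Medians of duplicate plates are given as relative viability. That measure is the nuclei count in treated wells divided by the count in vehicle wells. Counts were taken on 4× images of lung cancer cell lines in 1536-well plates, 5 days after pin-tool dosing the day after seeding with one drug alone or a fixed anchor-drug dose plus five library-drug doses (not always all listed) in √10 steps.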
# [2] = tested on: LXF-289
# Method in brief: as §1
# [3] = tested on: NCI-H1355
# Method in brief: as §1
# [4] = tested on: NCI-H1563
# Method in brief: as §1
# [5] = tested on: NCI-H1651
# Method in brief: as §1
# [6] = tested on: NCI-H1755
# Method in brief: as §1
# [7] = tested on: NCI-H1792
# Method in brief: as §1
# [8] = tested on: NCI-H1915
# Method in brief: as §1
# [9] = tested on: NCI-H2347
# Method in brief: as §1
# [10] = tested on: NCI-H3122
# Method in brief: as §1
# [11] = tested on: NCI-H322M
# Method in brief: as §1
# [12] = tested on: NCI-H441
# Method in brief: as §1
# [13] = tested on: NCI-H460
# Method in brief: as §1
# [14] = tested on: NCI-H520
# Method in brief: as §1
# [15] = tested on: NCI-H522
# Method in brief: as §1
# [16] = tested on: NCI-H596
# Method in brief: as §1
# [17] = tested on: NCI-H661
# Method in brief: as §1
# [18] = tested on: NCI-H727
# Method in brief: as §1
# [19] = tested on: PC-14
# Method in brief: as §1
# [20] = tested on: RERF-LC-KJ
# Method in brief: as §1
# [21] = tested on: SK-MES-1
# Method in brief: as §1
# [22] = tested on: SW 900
# Method in brief: as §1
smiles,measurement,setting,value
O=c1cc(N2CCOCC2)oc2c(-c3cccc4c3sc3ccccc34)cccc12 + N=C(N)NC(=N)NCCc1ccccc1 [Phenformin] (partner 250 µM),relative viability,[1]; first compound 0.01 µM,0.317
same,relative viability,[1]; first compound 0.03162 µM,0.31
same,relative viability,[1]; first compound 0.1 µM,0.331
same,relative viability,[1]; first compound 0.3162 µM,0.377
same,relative viability,[1]; first compound 1 µM,0.341
same,relative viability,[2]; first compound 0.01 µM,0.523
same,relative viability,[2]; first compound 0.03162 µM,0.55
same,relative viability,[2]; first compound 0.1 µM,0.457
same,relative viability,[2]; first compound 0.3162 µM,0.498
same,relative viability,[2]; first compound 1 µM,0.529
same,relative viability,[3]; first compound 0.01 µM,0.45
same,relative viability,[3]; first compound 0.03162 µM,0.446
same,relative viability,[3]; first compound 0.1 µM,0.316
same,relative viability,[3]; first compound 0.3162 µM,0.447
same,relative viability,[3]; first compound 1 µM,0.42
same,relative viability,[4]; first compound 0.01 µM,0.644
same,relative viability,[4]; first compound 0.03162 µM,0.733
same,relative viability,[4]; first compound 0.1 µM,0.635
same,relative viability,[4]; first compound 0.3162 µM,0.671
same,relative viability,[4]; first compound 1 µM,0.612
same,relative viability,[5]; first compound 0.01 µM,0.315
same,relative viability,[5]; first compound 0.03162 µM,0.366
same,relative viability,[5]; first compound 0.1 µM,0.352
same,relative viability,[5]; first compound 0.3162 µM,0.345
same,relative viability,[5]; first compound 1 µM,0.333
same,relative viability,[6]; first compound 0.01 µM,0.652
same,relative viability,[6]; first compound 0.03162 µM,0.694
same,relative viability,[6]; first compound 0.1 µM,0.655
same,relative viability,[6]; first compound 0.3162 µM,0.614
same,relative viability,[6]; first compound 1 µM,0.605
same,relative viability,[7]; first compound 0.01 µM,0.26
same,relative viability,[7]; first compound 0.03162 µM,0.202
same,relative viability,[7]; first compound 0.1 µM,0.213
same,relative viability,[7]; first compound 0.3162 µM,0.32
same,relative viability,[7]; first compound 1 µM,0.184
same,relative viability,[8]; first compound 0.01 µM,0.381
same,relative viability,[8]; first compound 0.03162 µM,0.387
same,relative viability,[8]; first compound 0.1 µM,0.371
same,relative viability,[8]; first compound 0.3162 µM,0.386
same,relative viability,[8]; first compound 1 µM,0.369
same,relative viability,[9]; first compound 0.01 µM,0.545
same,relative viability,[9]; first compound 0.03162 µM,0.318
same,relative viability,[9]; first compound 0.1 µM,0.376
same,relative viability,[9]; first compound 0.3162 µM,0.419
same,relative viability,[9]; first compound 1 µM,0.317
same,relative viability,[10]; first compound 0.01 µM,0.347
same,relative viability,[10]; first compound 0.03162 µM,0.374
same,relative viability,[10]; first compound 0.1 µM,0.38
same,relative viability,[10]; first compound 0.3162 µM,0.36
same,relative viability,[10]; first compound 1 µM,0.396
same,relative viability,[11]; first compound 0.01 µM,0.75
same,relative viability,[11]; first compound 0.03162 µM,0.781
same,relative viability,[11]; first compound 0.1 µM,0.395
same,relative viability,[11]; first compound 0.3162 µM,0.814
same,relative viability,[11]; first compound 1 µM,0.668
same,relative viability,[12]; first compound 0.01 µM,0.862
same,relative viability,[12]; first compound 0.03162 µM,0.805
same,relative viability,[12]; first compound 0.1 µM,0.861
same,relative viability,[12]; first compound 0.3162 µM,0.811
same,relative viability,[12]; first compound 1 µM,0.771
same,relative viability,[13]; first compound 0.01 µM,0.285
same,relative viability,[13]; first compound 0.03162 µM,0.522
same,relative viability,[13]; first compound 0.1 µM,0.558
same,relative viability,[13]; first compound 0.3162 µM,0.505
same,relative viability,[13]; first compound 1 µM,0.544
same,relative viability,[14]; first compound 0.01 µM,0.663
same,relative viability,[14]; first compound 0.03162 µM,0.555
same,relative viability,[14]; first compound 0.1 µM,0.547
same,relative viability,[14]; first compound 0.3162 µM,0.672
same,relative viability,[14]; first compound 1 µM,0.644
same,relative viability,[15]; first compound 0.01 µM,0.724
same,relative viability,[15]; first compound 0.03162 µM,0.662
same,relative viability,[15]; first compound 0.1 µM,0.572
same,relative viability,[15]; first compound 0.3162 µM,0.621
same,relative viability,[15]; first compound 1 µM,0.618
same,relative viability,[16]; first compound 0.01 µM,0.73
same,relative viability,[16]; first compound 0.03162 µM,0.837
same,relative viability,[16]; first compound 0.1 µM,0.717
same,relative viability,[16]; first compound 0.3162 µM,0.743
same,relative viability,[16]; first compound 1 µM,0.76
same,relative viability,[17]; first compound 0.01 µM,0.291
same,relative viability,[17]; first compound 0.03162 µM,0.278
same,relative viability,[17]; first compound 0.1 µM,0.28
same,relative viability,[17]; first compound 0.3162 µM,0.269
same,relative viability,[17]; first compound 1 µM,0.285
same,relative viability,[18]; first compound 0.01 µM,0.645
same,relative viability,[18]; first compound 0.03162 µM,0.546
same,relative viability,[18]; first compound 0.1 µM,0.475
same,relative viability,[18]; first compound 0.3162 µM,0.641
same,relative viability,[18]; first compound 1 µM,0.581
same,relative viability,[19]; first compound 0.01 µM,0.292
same,relative viability,[19]; first compound 0.03162 µM,0.758
same,relative viability,[19]; first compound 0.1 µM,0.428
same,relative viability,[19]; first compound 0.3162 µM,0.902
same,relative viability,[19]; first compound 1 µM,0.361
same,relative viability,[20]; first compound 0.01 µM,0.429
same,relative viability,[20]; first compound 0.03162 µM,0.413
same,relative viability,[20]; first compound 0.1 µM,0.412
same,relative viability,[20]; first compound 0.3162 µM,0.418
same,relative viability,[20]; first compound 1 µM,0.427
same,relative viability,[21]; first compound 0.01 µM,0.652
same,relative viability,[21]; first compound 0.03162 µM,0.688
same,relative viability,[21]; first compound 0.1 µM,0.688
same,relative viability,[21]; first compound 0.3162 µM,0.671
same,relative viability,[21]; first compound 1 µM,0.668
same,relative viability,[22]; first compound 0.01 µM,0.291
same,relative viability,[22]; first compound 0.03162 µM,0.635
same,relative viability,[22]; first compound 0.1 µM,0.485
same,relative viability,[22]; first compound 0.3162 µM,0.551
same,relative viability,[22]; first compound 1 µM,0.56
